{"source": "paper PMC10518257", "about": "(Nature Cancer, 2023)", "key": {"[1]": {"test_system": "ECLC5 luciferase cells implanted intracranially", "experiment": "Intracranial efficacy study", "format": "in vivo, NSG mice", "conditions": "Fig. 8e ECLC5 intracranial, 10 mg/kg BID, day 0 = 1, individual animals, 10 mg/kg"}, "[2]": {"experiment": "Animal weight of tumor-bearing mice", "conditions": "for Animal Weight (g), Mean: Ba/F3-KIF5B::RET tumor-bearing mice (Ext. Data Fig 8h); for Animal Weight: individual animals"}, "[3]": {"experiment": "Transcellular transport study, apparent permeability", "conditions": "pig, LLC-PK1"}}, "note": "“And” between values parts separate entries of the source, which are not always exact repeats. Equal values may be shown once.", "data": [{"smiles": "COc1ccc(CN2C3CC2CN(c2ccc(-c4cc(OCC(C)(C)O)cn5ncc(C#N)c45)cn2)C3)cn1", "note": "[Selpercatinib]", "values": [{"measurement": "Luminescence Data", "setting": "[1]; treatment day 46", "value": "53.1577 and 52.4694 and 35.0274 and 881.545 and 19.3617 and 18.0494"}, {"measurement": "Luminescence Data", "setting": "[1]; treatment day 55", "value": "200.4 and 271.183 and 155.59 and 1935.62 and 78.0003 and 75.6827"}, {"measurement": "Luminescence Data", "setting": "[1]; treatment day 61", "value": "323.18 and 414.363 and 232.604 and 1527.04 and 186.289 and 64.6294"}, {"measurement": "Luminescence Data", "setting": "[1]; treatment day 68", "value": "561.802 and 676.257 and 207.714 and 1673.82 and 333.171 and 210.62"}, {"measurement": "Luminescence Data", "setting": "[1]; treatment day 75", "value": "570.505 and 1484.59 and 792.807 and 4751.93 and 432.014 and 174.469"}, {"measurement": "Luminescence Data", "setting": "[1]; treatment day 82", "value": "999.294 and 1867.47 and 955.043 and 3557.94 and 547.305 and 464.239"}, {"measurement": "Animal Weight, Mean", "setting": "[2]; Ba/F3-KIF5B::RET G810R (Fig 8f), Selpercatinib 10 mg/kg BID, day 1", "value": 27.18, "unit": "g"}, {"measurement": "Animal Weight, Mean", "setting": "[2]; Ba/F3-KIF5B::RET G810R (Fig 8f), Selpercatinib 10 mg/kg BID, day 4", "value": 26.90, "unit": "g"}, {"measurement": "Animal Weight, Mean", "setting": "[2]; Ba/F3-KIF5B::RET G810R (Fig 8f), Selpercatinib 10 mg/kg BID, day 8", "value": 26.00, "unit": "g"}, {"measurement": "Animal Weight, Mean", "setting": "[2]; Ba/F3-KIF5B::RET G810R (Fig 8f), Selpercatinib 10 mg/kg BID, day 11", "value": 26.60, "unit": "g"}, {"measurement": "Animal Weight, Mean", "setting": "[2]; Ba/F3-KIF5B::RET G810R (Fig 8f), Selpercatinib 10 mg/kg BID, day 15", "value": 26.48, "unit": "g"}, {"measurement": "Animal Weight, Mean", "setting": "[2]; Ba/F3-KIF5B::RET G810R (Fig 8g), Selpercatinib 30 mg/kg BID, day 1", "value": 25.8, "unit": "g"}, {"measurement": "Animal Weight, Mean", "setting": "[2]; Ba/F3-KIF5B::RET G810R (Fig 8g), Selpercatinib 30 mg/kg BID, day 4", "value": 26.9, "unit": "g"}, {"measurement": "Animal Weight, Mean", "setting": "[2]; Ba/F3-KIF5B::RET G810R (Fig 8g), Selpercatinib 30 mg/kg BID, day 8", "value": 27.0, "unit": "g"}, {"measurement": "Animal Weight, Mean", "setting": "[2]; Ba/F3-KIF5B::RET G810R (Fig 8g), Selpercatinib 30 mg/kg BID, day 11", "value": 26.8, "unit": "g"}, {"measurement": "Animal Weight, Mean", "setting": "[2]; Ba/F3-KIF5B::RET G810R (Fig 8g), Selpercatinib 30 mg/kg BID, day 15", "value": 26.8, "unit": "g"}, {"measurement": "Animal Weight (g), Mean", "setting": "[2]; 3 mg/kg BID, day 1", "value": 28.0, "unit": "g"}, {"measurement": "Animal Weight (g), Mean", "setting": "[2]; 3 mg/kg BID, day 4", "value": 28.1, "unit": "g"}, {"measurement": "Animal Weight (g), Mean", "setting": "[2]; 3 mg/kg BID, day 8", "value": 28.6, "unit": "g"}, {"measurement": "Animal Weight (g), Mean", "setting": "[2]; 3 mg/kg BID, day 11", "value": 28.6, "unit": "g"}, {"measurement": "Animal Weight (g), Mean", "setting": "[2]; 3 mg/kg BID, day 15", "value": 28.4, "unit": "g"}, {"measurement": "Animal Weight (g), Mean", "setting": "[2]; 10 mg/kg BID, day 1", "value": 27.7, "unit": "g"}, {"measurement": "Animal Weight (g), Mean", "setting": "[2]; 10 mg/kg BID, day 4", "value": 27.7, "unit": "g"}, {"measurement": "Animal Weight (g), Mean", "setting": "[2]; 10 mg/kg BID, day 8", "value": 28.2, "unit": "g"}, {"measurement": "Animal Weight (g), Mean", "setting": "[2]; 10 mg/kg BID, day 11", "value": 28.7, "unit": "g"}, {"measurement": "Animal Weight (g), Mean", "setting": "[2]; 10 mg/kg BID, day 15", "value": 28.6, "unit": "g"}, {"measurement": "Animal Weight (g), Mean", "setting": "[2]; 30 mg/kg BID, day 1", "value": 28.1, "unit": "g"}, {"measurement": "Animal Weight (g), Mean", "setting": "[2]; 30 mg/kg BID, day 4", "value": 27.9, "unit": "g"}, {"measurement": "Animal Weight (g), Mean", "setting": "[2]; 30 mg/kg BID, day 8", "value": 29.0, "unit": "g"}, {"measurement": "Animal Weight (g), Mean", "setting": "[2]; 30 mg/kg BID, day 11", "value": 29.6, "unit": "g"}, {"measurement": "Animal Weight (g), Mean", "setting": "[2]; 30 mg/kg BID, day 15", "value": 29.2, "unit": "g"}, {"measurement": "Animal Weight (g), Mean", "setting": "[2]; 100 mg/kg BID, day 1", "value": 26.8, "unit": "g"}, {"measurement": "Animal Weight (g), Mean", "setting": "[2]; 100 mg/kg BID, day 4", "value": 26.1, "unit": "g"}, {"measurement": "Animal Weight (g), Mean", "setting": "[2]; 100 mg/kg BID, day 8", "value": 23.3, "unit": "g"}, {"measurement": "Animal Weight", "setting": "[2]; LUAD-0077AS1 PDX, Selpercatinib 10 mg/kg BID, treatment day 0", "value": "24 g and 25 g and 21 g and 23 g (2×)"}, {"measurement": "Animal Weight", "setting": "[2]; LUAD-0077AS1 PDX, Selpercatinib 10 mg/kg BID, treatment day 4", "value": "24 g (3×) and 21 g and 23 g"}, {"measurement": "Animal Weight", "setting": "[2]; LUAD-0077AS1 PDX, Selpercatinib 10 mg/kg BID, treatment day 7", "value": "23 g (3×) and 21 g and 24 g"}, {"measurement": "Animal Weight", "setting": "[2]; LUAD-0077AS1 PDX, Selpercatinib 10 mg/kg BID, treatment day 11", "value": "24 g (2×) and 23 g (2×) and 21 g"}, {"measurement": "Animal Weight", "setting": "[2]; LUAD-0077AS1 PDX, Selpercatinib 10 mg/kg BID, treatment day 14", "value": "23 g and 24 g (2×) and 21 g and 25 g"}, {"measurement": "Animal Weight", "setting": "[2]; LUAD-0077AS1 PDX, Selpercatinib 10 mg/kg BID, treatment day 19", "value": "25 g and 23 g and 22 g and 26 g and 24 g"}, {"measurement": "Animal Weight", "setting": "[2]; LUAD-0087AS2 PDX, Selpercatinib 30 mg/kg BID, treatment day 0", "value": "27 g (4×) and 28 g"}, {"measurement": "Animal Weight", "setting": "[2]; LUAD-0087AS2 PDX, Selpercatinib 30 mg/kg BID, treatment day 3", "value": "26 g (3×) and 28 g and 27 g"}, {"measurement": "Animal Weight", "setting": "[2]; LUAD-0087AS2 PDX, Selpercatinib 30 mg/kg BID, treatment day 7", "value": "27 g (3×) and 26 g and 28 g"}, {"measurement": "Animal Weight", "setting": "[2]; LUAD-0087AS2 PDX, Selpercatinib 30 mg/kg BID, treatment day 10", "value": "27 g (3×) and 26 g (2×)"}, {"measurement": "Animal Weight", "setting": "[2]; LUAD-0087AS2 PDX, Selpercatinib 30 mg/kg BID, treatment day 14", "value": "26 g (3×) and 27 g (2×)"}, {"measurement": "Animal Weight", "setting": "[2]; LUAD-0087AS2 PDX, Selpercatinib 30 mg/kg BID, treatment day 17", "value": "27 g (4×) and 26 g"}, {"measurement": "Animal Weight", "setting": "[2]; LUAD-0087AS2 PDX, Selpercatinib 30 mg/kg BID, treatment day 21", "value": "28 g and 27 g (2×) and 26 g and 25 g"}, {"measurement": "Animal Weight", "setting": "[2]; LUAD-0087AS2 PDX, Selpercatinib 30 mg/kg BID, treatment day 24", "value": "28 g (2×) and 27 g (2×) and 26 g"}, {"measurement": "Animal Weight", "setting": "[2]; LUAD-0087AS2 PDX, Selpercatinib 30 mg/kg BID, treatment day 29", "value": "26 g (2×) and 27 g and 28 g (2×)"}, {"measurement": "Animal Weight", "setting": "[2]; LUAD-0087AS2 PDX, Selpercatinib 30 mg/kg BID, treatment day 32", "value": "26 g (2×) and 28 g (3×)"}, {"measurement": "Animal Weight", "setting": "[2]; LUAD-0087AS2 PDX, Selpercatinib 30 mg/kg BID, treatment day 35", "value": "26 g (2×) and 28 g and 27 g (2×)"}, {"measurement": "Animal Weight", "setting": "[2]; LUAD-0087AS2 PDX, Selpercatinib 30 mg/kg BID, treatment day 38", "value": "23 g (2×) and 28 g and 29 g and 26 g"}, {"measurement": "Animal Weight", "setting": "[2]; LUAD-0087AS2 PDX, Selpercatinib 30 mg/kg BID, treatment day 42", "value": "27 g (4×) and 26 g"}, {"measurement": "Animal Weight", "setting": "[2]; LUAD-0087AS2 PDX, Selpercatinib 30 mg/kg BID, treatment day 45", "value": "28 g (3×) and 27 g (2×)"}, {"measurement": "Papp at 3 h, 1 μM", "setting": "[3]", "value": 17, "unit": "×10⁻⁶ cm/s"}]}]}
